# pIC50: −log10 of the molar value. Entries after “also recorded” stand apart in the source; their conditions may differ.
# Key:
# primary astrocytes [1] = experiment: Intracellular glycogen quantification; assay type: cell-based, mouse; details: 10 μM, 3 h, vs vehicle
# Method: Primary cultures of cerebrocortical astrocytes were obtained from 1 to 2-day-old OF1 mouse pups (Charles River). Briefly, cortices were isolated and minced in small pieces under a dissecting microscope. The cells were incubated for 30 min at 37° C. in a solution containing 20 U/ml papain, 1 mM L-cysteine and 10 kU/ml DNase I. After dissociation, papain activity was stopped by the addition of fetal calf serum (FCS). Single-cell suspension was then obtained by mechanical dissociation, which consisted in cells trituration in a DMEM D7777 medium supplemented with 44 mm NaHCO3, 10 ml/L antibiotic/antimycotic solution and 10% FCS. […]
# Astrocytes grown on 12-well plates were used for intracellular glycogen quantifications. […]
# First, the amount of proteins in each sample was quantified to assess whether harvested astrocytes from primary cell cultures yielded enough and equivalent amounts of proteins on each replicates. Proteins were quantified using the micro BCA Protein Assay kit (Thermo Scientific), according to manufacturer's instructions. Next, intracellular glycogen concentrations were quantified using a 250 μl-aliquot of the same stimulated, thawed, and sonicated cell lysate. […] Fluorescence intensity (340 nm excitation/440 nm emission) was measured using a Safire 2 spectrophotometer. […]
# primary astrocytes [2] = experiment: MTT mitochondrial activity assay; assay type: cell-based; details: Mus musculus, Astrocyte, 24 h treatment
# Method: Primary cultures of cerebrocortical astrocytes were obtained from 1 to 2-day-old OF1 mouse pups (Charles River). Briefly, cortices were isolated and minced in small pieces under a dissecting microscope. The cells were incubated for 30 min at 37° C. in a solution containing 20 U/ml papain, 1 mM L-cysteine and 10 kU/ml DNase I. After dissociation, papain activity was stopped by the addition of fetal calf serum (FCS). Single-cell suspension was then obtained by mechanical dissociation, which consisted in cells trituration in a DMEM D7777 medium supplemented with 44 mm NaHCO3, 10 ml/L antibiotic/antimycotic solution and 10% FCS. The cells were seeded at an average density of ˜10′000 cells/cm^2 on poly-D-lysine coated 96- or 12-well culture plates, depending on their use, and grown in DMEM D7777 medium supplemented with 44 mm NaHCO3, 10 ml/L antibiotic/antimycotic solution and 10% FCS at 37° C. in a humidified atmosphere containing 5% CO2/95% air. Culture medium was renewed twice a week. Cells were stimulated and harvested between DIV14 and DIV17, when confluence and cell growth were optimal.
# To monitor mitochondrial activity in astrocytes, which is linked to the metabolic process of glycolysis and production of lactate, astrocytes in 96-well plates were stimulated for 24 h (37° C. 5% CO2/95% air) with the compounds of the invention ranging from 0.2 to 200 μM.
# After stimulation, 5 mg/ml thiazol blue tetrazolium bromide (MTT) in D5030 medium complemented with 5 mM D-glucose and 44 mM sodium bicarbonate (pH 7.2) was added to each well, and cells were incubated for 4 h at 37° C. (5% CO2). The medium was then removed and the amount of reduced MTT, i.e. formazan, solubilized in DMSO (50 μl/well) was determined using a spectrophotometer (absorbance of 570 nm).
# The mitochondrial activity in primary astrocytes treated with Compounds (1) to (4) at concentrations ranging from 1 nM to 200 μM. After 24 h, mitochondrial activity was monitored in MTT colorimetric assay as described above (FIG. 3).
# [3] = test system: astrocytes transfected with GLUT1 siRNA; experiment: 2-deoxyglucose (2DG) uptake, GLUT1 siRNA astrocytes (cellular model of GLUT1-DS); assay type: cell-based, mouse; details: 30 min treatment, 1 or 10 μM, vs vehicle
# Method: Astrocytes grown on 12-well plates and transfected with either scramble siRNA or GLUT1 siRNA were used. 1 day after having replaced transfection medium (DIV13), 2DG uptake was measured after treatment for 30 min with Vehicle (0.1% DMSO) or with the compound of the invention (1) (concentrations of 1 or 10 μM). During treatment, 1 mM 2DG was added to the medium for assessment of 2DG uptake. At the end of the stimulation, medium was removed and replaced with 150 μl NaOH 0.1M, and stored at −20° C. After thawing, cells were collected using cell scraper and heated for 40 min at 85° C. Then, 150 ul HCl 0.1M and TAE buffer 200 mM was added to each condition. 20 μl were added to a transparent 96-well plate and 2DG was quantified by addition of a reaction solution containing 50 mM TAE, 50 mM KCl, 0.02% BSA, 0.1 mM NADP, 0.2 U/ml diaphorase, 2 mM resazurin and 20 U/ml glucose-6-phosphate dehydrogenase. Concentration of 2DG in samples were calculated by comparison with standard curve of deoxy-glucose-6-phosphate ranging from 0 to 1 nmoles.
# (§1) Scramble and GLUT1 siRNA sequences were as following:
# Cells were grown in transfection medium for 3 days at 37° C. in a humidified atmosphere containing 5% CO2/95% air. […]
# 2DG uptake after treatment with Veh or compound of the invention (1) was measured in astrocytes transfected with scramble siRNA or GLUT1 siRNA (FIG. 4A).
# [4] = test system: astrocytes transfected with scramble siRNA; experiment: Lactate secretion, scramble siRNA astrocytes; assay type: cell-based, mouse; details: vs vehicle
# Method: Secretion of L-lactate was measured in the extracellular medium of 96-well plated astrocytes after 90 min stimulation (at 37° C., in 5% CO2/95% air conditions) with Vehicle (DMSO), the compounds of the invention (100 nM to 100 μM) or positive control. […] Stimulation medium was composed of D5030 medium complemented with 5 mM D-glucose and 44 mM sodium bicarbonate, pH 7.2. To quantify lactate concentrations in the extracellular medium, 200 μl of a 0.2M Glycine-semicarbazide buffer (pH 10) containing 3 mM NAD and 14 U/ml LDH was added to each well of a 96-well plate containing 30 μl aliquots of extracellular medium. Samples were incubated at 37° C. for 1 h. Fluorescence intensity (340 nm excitation/450 nm emission), which represents the amount of NADH produced, was measured, and lactate concentration values were determined relative to a standard curve of L-lactate concentrations.
# as §1
# Cells were grown in transfection medium for 3 days at 37° C. in a humidified atmosphere containing 5% CO2/95% air. After 3 days, transfection medium was replaced with DMEM D5030 supplemented with 44 mM NaHCO3 and 5 mM D-Glucose (1 ml per well).
# Lactate secretion after treatment with Veh or compound of the invention (1) was measured in astrocytes transfected with scramble siRNA or GLUT1 siRNA (FIG. 4B).
smiles,measurement,setting,value
"COc1cc2ccnc(Nc3ccc(OC(F)(F)F)cc3)c2cc1OC [Example 1, 6,7-dimethoxy-N-(4-(trifluoromethoxy)phenyl)isoquinolin-1-amine]",Intracellular glycogen levels,primary astrocytes [1],significantly enhances the degradation of intracellular glycogen
same,pIC50,primary astrocytes [2],4.46
same,2DG uptake,[3],restored; also recorded: significantly enhances 2DG uptake
same,Lactate secretion,[4],significantly enhances lactate secretion

# Reference: patent publication US11925632B2, “Isoquinoline derivatives for use in treating GLUT1 deficiency syndrome” (GLIAPHARM SA, priority 2019, dated 2024)
